From paper PMC10175918 (Communications Biology, 2023)

Tests used:
[1] = molecular target: T1, urotensin-II receptor (UTS2R) (Homo sapiens, UniProt Q9UKP6); assay: TGFα-shedding assay, concentration-response on UTS2R (endogenous G protein), with or without urantide; assay type: cell-based; conditions: for UTS2R activation: TGFα-shedding, screening 10 μM and response curves (Fig. 1a, Supplementary Fig. 1a)
T1 construct: expressed in transfected cells; host or cells: HEK293A
T1 sequence (Q9UKP6 1-389): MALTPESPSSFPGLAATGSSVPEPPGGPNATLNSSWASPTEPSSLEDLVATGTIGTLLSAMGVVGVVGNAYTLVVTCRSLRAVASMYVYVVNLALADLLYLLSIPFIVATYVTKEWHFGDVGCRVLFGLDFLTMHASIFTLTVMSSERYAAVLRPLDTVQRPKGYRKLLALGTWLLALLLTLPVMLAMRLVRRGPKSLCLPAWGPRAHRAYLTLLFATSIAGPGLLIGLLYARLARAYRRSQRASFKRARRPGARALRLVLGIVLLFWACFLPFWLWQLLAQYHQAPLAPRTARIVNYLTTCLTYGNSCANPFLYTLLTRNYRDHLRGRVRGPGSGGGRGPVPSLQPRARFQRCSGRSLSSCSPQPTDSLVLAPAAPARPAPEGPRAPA

[2] = molecular target: T2, FLAG-UTS2R (urotensin-II receptor) (human) (UniProt Q9UKP6)
T2 sequence: T1 sequence (Q9UKP6 1-389)

Q: With `N#C[C@@]1(c2ccc3c(N)ncnn23)O[C@H](CO)[C@@H](O)[C@H]1O` [GS-441524] as the molecule, how does the UTS2R activation [1] read?
A: no effect on UTS2R activation

Q: For `C[C@H](NP(=O)(O)OC[C@H]1O[C@@](C#N)(c2ccc3c(N)ncnn23)[C@H](O)[C@@H]1O)C(=O)O` [GS-704277], which UTS2R activation [1] is on record?
A: no effect on UTS2R activation

Q: Which results are given for `CC(C)[C@H](NC(=O)[C@@H]1CSSC[C@H](NC(=O)[C@H](CC(=O)O)NC(=O)[C@@H]2CCCN2C(=O)[C@@H](NC(=O)[C@@H](N)CCC(=O)O)[C@@H](C)O)C(=O)N[C@@H](Cc2ccccc2)C(=O)N[C@@H](Cc2c[nH]c3ccccc23)C(=O)N[C@@H](CCCCN)C(=O)N[C@@H](Cc2ccc(O)cc2)C(=O)N1)C(=O)O` [UT2]?
A: Emax ([1]; WT UTS2R, without chimeric Gα protein, read-out: Emax): 59 ± 0.7%; activation at 0.1 µM ([1]; compound concentration Log10 (M) -7, without urantide, read-out: UTS2R activation (%AP-TGFα release)): 59.6%; activation at 0.01 µM ([1]; compound concentration Log10 (M) -8, without urantide, read-out: UTS2R activation (%AP-TGFα release)): 60.1%; activation at 0.001 µM ([1]; compound concentration Log10 (M) -9, without urantide, read-out: UTS2R activation (%AP-TGFα release)): 58.8%; activation at 0.0001 µM ([1]; compound concentration Log10 (M) -10, without urantide, read-out: UTS2R activation (%AP-TGFα release)): 51.6%; activation at 10 pM ([1]; compound concentration Log10 (M) -11, without urantide, read-out: UTS2R activation (%AP-TGFα release)): 18.4%

Q: What does the source list for ETPDCFWKYCV [urotensin-II (UT2), endogenous peptidic ligand of UTS2R]?
A: TGFα-shedding assay (AP-TGFα release), untagged UTS2R in HEK293A cells: Emax of receptor activation by UT2 (%AP-TGFα release) [2]: 59; TGFα-shedding assay (AP-TGFα release), untagged UTS2R in HEK293A cells: pEC50 of receptor activation by UT2 [2]: 10.7
